Test: Cytotoxicity Determination
Type: cell-based
Settings: human, HEp-2 cells, without addition of virus, CCK-8 readout, bins (Table 4: greater than 100 μM; Table 5: equal to or less than 100 μM and greater than 10 μM), read-out: 50% cytotoxicity concentration (CC50)
Procedure: In order to determine the compound cytotoxicity, in parallel, each of the compounds is applied to duplicate wells in a 384-well cell plate at serial final concentrations starting from 100 μM using ½ stepwise dilutions for 7 points without addition of virus. Incubate the cells at 37° C., 5% CO2 for 5 days. Add 6 μl CCK-8 into each well and incubate in a CO2 incubator at 37° C. for 3-4 hours. Read the plates to obtain the optical densities which are used to calculate 50% cytotoxicity concentration (CC50).

Compound	CC50 at 5 days [µM]
CCOc1ccc(C(=O)NCC(=O)Nc2cc3ccccc3n2C)cc1OC [Compound 909]	> 100
COc1cc(C(=O)NCC(=O)c2cccc(-c3csc4c(F)cccc34)n2)ccc1OCCN1CCOCC1 [Compound 1233]	10 to 100
CCOc1ccc(C(=O)NCC(=O)Nc2nc3cc(F)ccc3n2CCOC)cc1OC [Compound 914]	> 100
COc1ccc(C(=O)NCC(=O)c2nc(-c3csc4c(F)cccc34)n[nH]2)cc1OC [Compound 860]	10 to 100
COc1ccc(C(=O)Nc2cn(C)c3ccc(-c4csc5c(F)cccc45)nc3c2=O)cc1OC [Compound 2901]	> 100
COc1ccc(C(=O)NCC(=O)c2cc(=O)cc(-c3csc4c(F)cccc34)[nH]2)cc1OC [Compound 1222]	> 100
CN(C)c1ccc(C(=O)NCC(=O)N/N=C/c2csc3ccccc23)cc1 [Compound 237]	10 to 100
COc1ccc2c(c1)/C(=N/NC(=O)CNC(=O)c1ccc(OC)c(OC)c1)CC2 [Compound 424]	> 100
COc1ccc(C(=O)NCC(=O)c2coc(-c3csc4c(F)cccc34)n2)cc1OC [Compound 3200]	> 100
CCOc1ccc(C(=O)NCC(=O)NCCc2csc3c(F)cccc23)cc1OC [Compound 908]	> 100
COc1ccc(C(=O)NCC(=O)N/N=C(\C)c2c(Br)sc3ccccc23)cc1OC [Compound 437]	10 to 100
CCOc1ccc(C(=O)NCC(=O)Nc2nc3ccc(F)c(F)c3n2CCOC)cc1OC [Compound 915]	> 100
COc1ccc(C(=O)NCC(=O)c2cncc(-c3csc4c(F)cccc34)n2)cc1OC [Compound 1219]	> 100
CCn1cc(-c2csc3c(F)cccc23)nc1C(=O)CNC(=O)c1ccc(OC)c(OC)c1 [Compound 1354]	10 to 100
CC(C)Oc1ccc(C(=O)NCC(=O)N/N=C/c2csc3ccccc23)cc1 [Compound 236]	10 to 100
COc1ccc(C(=O)NCC(=O)N/N=C(\C)c2csc(-c3ccccc3)c2)cc1OC [Compound 429]	> 100
COc1cc(C(=O)NCC(=O)c2cccc(-c3csc4c(F)cccc34)n2)ccc1OC1CCN(C)CC1 [Compound 1234]	10 to 100
COc1ccc(C(=O)NN(C)C(=O)c2cccc(-c3csc4c(F)cccc34)n2)cc1OC [Compound 3102]	10 to 100
COc1ccc(C(=O)NCC(=O)c2nc(-c3csc4c(F)cccc34)co2)cc1OC [Compound 3201]	10 to 100
COc1ccc(C(=O)NCC(=O)N/N=C(\C)c2nc3ccccc3s2)cc1OC [Compound 417]	10 to 100

Compound	CC50 at 5 days [µM]
COc1ccc(CNCC(=O)N/N=C/c2csc3ccccc23)cc1OC [Compound 241]	10 to 100
COc1ccc(C(=O)NC(C)C(=O)c2nc(-c3csc4c(F)cccc34)ccc2O)cc1OC (stereo not shown) [Compound 1304]	10 to 100
CCOc1ccc(C(=O)NCC(=O)Nc2nc3ccccc3n2CCOC)cc1OC [Compound 913]	> 100
COc1ccc(C(=O)NCC(=O)N/N=C2\CCc3ccccc32)cc1OC [Compound 425]	> 100
COc1cc(C(=O)NCC(=O)N/N=C(\C)c2csc3ccccc23)ccn1 [Compound 473]	> 100
COc1ccc(C(=O)NCC(=O)N/C=C/c2csc3ccccc23)cc1OC [Compound 4102]	10 to 100
CCOc1ccc(C(=O)NCC(=O)Nc2nc3cc(C)ccc3n2CCOC)cc1OC [Compound 916]	> 100
COc1ccc(C(=O)NCc2nnc(-c3csc4ccccc34)o2)cc1OC [Compound 4103]	> 100
COc1ccc(C(=O)NCC(=O)Nc2ccc3c(-c4ccccc4)c[nH]c3c2)cc1OC [Compound 4104]	> 100
COc1ccc(C(=O)NCCc2nccc(-c3csc4c(F)cccc34)n2)cc1OC [Compound 1208]	> 100
COc1ccc(C(=O)NCC(=O)N/N=C(\C)c2cc(-c3ccccc3)sc2C)cc1OC [Compound 419]	10 to 100
COc1ccc(C(=O)NCC(=O)NNCCC(=O)c2csc3ccccc23)cc1OC [Compound 904]	> 100
COc1ccc(C(=O)NCC(=O)N/N=C/c2csc(-c3ccccc3)c2)cc1OC [Compound 487]	10 to 100
COc1ccc(C(=O)NCC(=O)NN=C2Cc3ccccc3C2)cc1OC [Compound 420]	> 100
COc1ccc(C(=O)NCC(=O)NN=C(c2cccs2)c2cccs2)cc1OC [Compound 431]	> 100
COc1ccc(C(=O)NCCC(=O)N/N=C(/C)c2csc3ccccc23)cc1OC [Compound 243]	> 100
COc1cc(C(=O)NCC(=O)c2cccc(-c3csc4c(F)cccc34)n2)ccc1OC1CCNCC1 [Compound 1231]	10 to 100
COc1ccc(C(=O)CCC(=O)c2cccc(-c3csc4c(F)cccc34)n2)cc1OC [Compound 1339]	10 to 100
COc1ccc(S(=O)(=O)NCC(=O)N/N=C(\C)c2csc3ccccc23)cc1OC [Compound 240]	10 to 100
CCOc1ccc(C(=O)NCCNC(=O)N(CCOC)c2csc3c(F)cccc23)cc1OC [Compound 1000]	> 100

Compound	CC50 at 5 days [µM]
COc1ccc(C(=O)NCC(=O)Nc2cc3ccccc3c(=O)[nH]2)cc1OC [Compound 907]	> 100
COc1ccc(C(=O)NCC(=O)N/N=C(\C)c2csc3ccc(Br)cc23)cc1OC [Compound 432]	10 to 100
COc1ccc(C(=O)NCCc2ccnc(-c3csc4c(F)cccc34)n2)cc1OC [Compound 1207]	> 100
CCOc1ccc(C(=O)NCC(=O)NNC(=O)c2csc3cccnc23)cc1OC [Compound 902]	10 to 100
Cc1ccc(/C=N/NC(=O)CNC(=O)c2ccccc2)o1 [Compound 119]	10 to 100
COc1ccc(C(=O)NCC(=O)N/N=C(\C)c2csc3c2CCCC3)cc1OC [Compound 428]	> 100
COc1cc(C(=O)CNC(=O)c2ccc(OC)c(OC)c2)nc(-c2csc3c(F)cccc23)n1 [Compound 1201]	> 100
COc1ccc(CC(=O)NCC(=O)N/N=C(/C)c2csc3ccccc23)cc1OC [Compound 472]	10 to 100
CCOc1ccc(C(=O)NCC(=O)N/N=C(\C)c2csc3cccnc23)cc1OC [Compound 465]	10 to 100
CCOc1ccc(C(=O)NCC(=O)Nc2nc3cc(C(=O)OC)ccc3n2CCOC)cc1OC [Compound 912]	10 to 100
COc1ccc(C(=O)NCC(=O)N/N=C/c2cncc3ccccc23)cc1OC [Compound 412]	10 to 100
COc1ccc(C(=O)NCC(=O)N/N=C/c2csc3ccccc23)cc1 [Compound 101]	> 100
COc1ccc(C(=O)N(C)CC(=O)N/N=C(\C)c2csc3ccccc23)cc1OC [Compound 242]	> 100
COc1cc(C(=O)NCC(=O)c2ccc(OC)c(-c3ccc(F)c(Cl)c3)n2)ccc1OCCO [Compound 1603]	> 100
COc1ccc(C(=O)NCC(=O)N/N=C(\C)c2cnc3ccccc3c2)cc1OC [Compound 435]	> 100
COc1ccc(C(=O)NCC(=O)c2cnc(-c3csc4c(F)cccc34)n2C)cc1OC [Compound 2205]	> 100
COc1ccc(C(=O)NCC(=O)N/N=C(\C)c2cccc3ccccc23)cc1OC [Compound 433]	10 to 100
COc1ccc(C(=O)NCC(=O)N/N=C2\CCc3cc(OC)c(OC)cc32)cc1OC [Compound 421]	> 100
